Test results from PubChem BioAssay AID330 (DTP/NCI, 2004).
“And” between values parts separate entries of the source, which are not always exact repeats. Equal entries are not always repeated. Toxic doses and inconclusive results are not listed.

Tested on: P388 leukemia ip, CD2F1 mice, survival T/C
Assay: NCI In Vivo Anticancer Drug Screen. Data for tumor model P388 Leukemia (intraperitoneal) in CD2F1 (CDF1) mice
Conditions: endpoint: median survival time, higher = longer survival
Method in brief: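 Mice carrying the transplanted tumor received test compound or vehicle. Survival was recorded in each group, and the value is the treated-group measurement divided by that of the vehicle-treated control group.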

[1] = dose: 50.0 mg/kg/injection, schedule: Q01DX005 (ip), vehicle: Klucel (hydroxypropylcellulose) (HPC)
[2] = dose: 100.0 mg/kg/injection, schedule: Q01DX005 (ip), vehicle: Klucel (hydroxypropylcellulose) (HPC)
[3] = dose: 200.0 mg/kg/injection, schedule: Q01DX005 (ip), vehicle: Klucel (hydroxypropylcellulose) (HPC)
[4] = dose: 100.0 mg/kg/injection, schedule: Q04DX003 (ip), vehicle: saline
[5] = dose: 100.0 mg/kg/injection, schedule: Q04DX003 (ip), vehicle: saline with Tween-80
[6] = dose: 200.0 mg/kg/injection, schedule: Q04DX003 (ip), vehicle: saline with Tween-80
[7] = dose: 400.0 mg/kg/injection, schedule: Q04DX003 (ip), vehicle: saline with Tween-80
[8] = dose: 50.0 mg/kg/injection, schedule: Q01DX005 (ip), vehicle: saline with Tween-80
[9] = dose: 100.0 mg/kg/injection, schedule: Q01DX005 (ip), vehicle: saline with Tween-80
[10] = dose: 200.0 mg/kg/injection, schedule: Q01DX005 (ip), vehicle: saline with Tween-80
[11] = dose: 15.0 mg/kg/injection, schedule: Q01DX005 (ip), vehicle: Klucel (hydroxypropylcellulose) (HPC)
[12] = dose: 30.0 mg/kg/injection, schedule: Q01DX005 (ip), vehicle: Klucel (hydroxypropylcellulose) (HPC)
[13] = dose: 50.0 mg/kg/injection, schedule: Q01DX009 (ip), vehicle: saline with Tween-80
[14] = dose: 100.0 mg/kg/injection, schedule: Q01DX009 (ip), vehicle: saline with Tween-80
[15] = dose: 200.0 mg/kg/injection, schedule: Q01DX009 (ip), vehicle: saline with Tween-80
[16] = dose: 60.0 mg/kg/injection, schedule: Q01DX005 (ip), vehicle: saline with Tween-80

`CN=C1c2ccccc2C(=O)c2c1c(O)n(C)c2O` was tested, and the T/C [1] was 97 % of control, the T/C [2] was 97 % of control and the T/C [3] was 106 % of control.

In the case of `CC1CN1P(=O)(N1CC1C)N1CC1C` (stereo not drawn), the T/C (dose: 3.13 mg/kg/injection, schedule: Q04DX003 (ip), vehicle: saline) was 104 % of control, the T/C (dose: 6.25 mg/kg/injection, schedule: Q04DX003 (ip), vehicle: saline) was 109 % of control and the T/C (dose: 12.5 mg/kg/injection, schedule: Q04DX003 (ip), vehicle: saline) was 109 % of control. The T/C (dose: 50.0 mg/kg/injection, schedule: Q04DX003 (ip), vehicle: saline) was 222 % of control and the T/C [4] was 86 % of control.

With `CC(=O)c1ccc(Cl)c(N=Cc2cc(Br)ccc2O)c1` the T/C [1] was 88 % of control, the T/C [2] was 95 % of control and the T/C [3] was 92 % of control.

`COC(=O)C1C(Sc2ccccc2)CCN1C(C)=O` (stereo not drawn) was tested, and the T/C (dose: 50.0 mg/kg/injection, schedule: Q01DX005 (ip), vehicle: saline) was 88 % of control, the T/C (dose: 100.0 mg/kg/injection, schedule: Q01DX005 (ip), vehicle: saline) was 88 % of control and the T/C (dose: 200.0 mg/kg/injection, schedule: Q01DX005 (ip), vehicle: saline) was 88 % of control.

`Nc1nc2ncc(CCNc3ccc(C(=O)NC(CCC(=O)O)C(=O)O)cc3)nc2c(=O)[nH]1` (stereo not drawn) was tested, and the T/C (dose: 12.5 mg/kg/injection, schedule: Q01DX009 (ip), vehicle: Klucel (hydroxypropylcellulose) (HPC)) was 98 % of control, the T/C (dose: 25.0 mg/kg/injection, schedule: Q01DX009 (ip), vehicle: Klucel (hydroxypropylcellulose) (HPC)) was 103 % of control and the T/C (dose: 50.0 mg/kg/injection, schedule: Q01DX009 (ip), vehicle: Klucel (hydroxypropylcellulose) (HPC)) was 107 % of control. The T/C (dose: 100.0 mg/kg/injection, schedule: Q01DX009 (ip), vehicle: Klucel (hydroxypropylcellulose) (HPC)) was 93 % of control.

`ClC(Cl)=C(Cl)C(Cl)=C(Cl)Cl` was tested, and the T/C (dose: 50.0 mg/kg/injection, schedule: Q01DX001 (ip), vehicle: saline) was 108 % of control and the T/C (dose: 100.0 mg/kg/injection, schedule: Q01DX001 (ip), vehicle: saline) was 100 % of control.

With `COc1ccc(NC(=S)Nc2ccccn2)cc1` the T/C [5] was 108 % of control, the T/C [6] was 95 % of control and the T/C [7] was 112 % of control.

In the case of `CCOC(=O)C1=NNC(C#N)C1` (stereo not drawn), the T/C [8] was 101 % of control, the T/C [9] was 97 % of control and the T/C [10] was 99 % of control.

`CC(=O)c1ccccc1N=O` was tested, and the T/C (dose: 50.0 mg/kg/injection, schedule: Q01DX001 (ip), vehicle: other) was 102 % of control, the T/C (dose: 100.0 mg/kg/injection, schedule: Q01DX001 (ip), vehicle: other) was 101 % of control and 107 % of control and the T/C (dose: 200.0 mg/kg/injection, schedule: Q01DX001 (ip), vehicle: other) was 100 % of control. The T/C (dose: 400.0 mg/kg/injection, schedule: Q01DX001 (ip), vehicle: other) was 102 % of control.

`CN(CC(=O)NC(Cc1c[nH]c2ccccc12)C(=O)O)C(=O)OCc1ccccc1` (stereo not drawn) was tested, and the T/C [8] was 96 % of control, the T/C [9] was 102 % of control and the T/C [10] was 98 % of control.

`COC1(OC)OC2=C(OC1(OC)OC)c1ccccc1C2=O` was tested, and the T/C (dose: 7.5 mg/kg/injection, schedule: Q01DX005 (ip), vehicle: Klucel (hydroxypropylcellulose) (HPC)) was 114 % of control, the T/C [11] was 114 % of control and 122 % of control and the T/C [12] was 114 % of control and 115 % of control. For the same compound, the T/C (dose: 60.0 mg/kg/injection, schedule: Q01DX005 (ip), vehicle: Klucel (hydroxypropylcellulose) (HPC)) was 111 % of control and 115 % of control (2×).

For `COC(=O)CC(C)CC(=O)O` (stereo not drawn), the T/C [13] was 100 % of control, the T/C [14] was 107 % of control and the T/C [15] was 100 % of control.

`CCC(=O)C(=O)c1ccc(O)c(C)c1O` was tested, and the T/C [13] was 100 % of control, the T/C [14] was 96 % of control and the T/C [15] was 90 % of control.

For `Cc1cccc(N=Nc2c(-c3ccccc3)nn(C(N)=S)c2C)c1C`, the T/C (dose: 100.0 mg/kg/injection, schedule: Q04DX002 (ip), vehicle: Klucel (hydroxypropylcellulose) (HPC)) was 94 % of control, the T/C (dose: 200.0 mg/kg/injection, schedule: Q04DX002 (ip), vehicle: Klucel (hydroxypropylcellulose) (HPC)) was 105 % of control and the T/C (dose: 400.0 mg/kg/injection, schedule: Q04DX002 (ip), vehicle: Klucel (hydroxypropylcellulose) (HPC)) was 94 % of control.

In the case of `CC(C)c1cccc(C(C)C)c1NC(=O)Nc1cccc(C(F)(F)F)c1`, the T/C [11] was 88 % of control, the T/C [12] was 93 % of control and the T/C (dose: 240.0 mg/kg/injection, schedule: Q01DX005 (ip), vehicle: Klucel (hydroxypropylcellulose) (HPC)) was 88 % of control.

For `Nc1nc(N)c2c(ccc3nccc32)[nH]1`, the T/C (dose: 6.25 mg/kg/injection, schedule: Q01DX005 (ip), vehicle: saline) was 103 % of control, the T/C (dose: 12.5 mg/kg/injection, schedule: Q01DX005 (ip), vehicle: saline) was 103 % of control and the T/C (dose: 25.0 mg/kg/injection, schedule: Q01DX005 (ip), vehicle: saline) was 110 % of control.

For `COC1/C=C/OC2(C)Oc3c(C)c(O)c4c(c3C2=O)C(=O)C(CO)=C(NC(=O)/C(C)=C\C=C\C(C)C(O)C(C)C(O)C(C)C(OC(C)=O)C1C)C4=O` (stereo not drawn), the T/C [13] was 104 % of control, the T/C [14] was 99 % of control and the T/C [15] was 112 % of control.

In the case of `COc1cc2cnc(-c3ccncc3)cc2cc1OC`, the T/C [4] was 95 % of control and the T/C (dose: 200.0 mg/kg/injection, schedule: Q04DX003 (ip), vehicle: saline) was 108 % of control.

`C=CN=NNc1ccccc1` was tested, and the T/C (dose: 100.0 mg/kg/injection, schedule: Q04DX003 (ip), vehicle: saline + Tween-80 + alcohol) was 105 % of control, the T/C (dose: 200.0 mg/kg/injection, schedule: Q04DX003 (ip), vehicle: saline + Tween-80 + alcohol) was 106 % of control and the T/C (dose: 400.0 mg/kg/injection, schedule: Q04DX003 (ip), vehicle: saline + Tween-80 + alcohol) was 110 % of control.

For `C/C(=C\N1CCN(c2ccc(F)cc2)CC1)C(=O)c1ccc(F)cc1`, the T/C (dose: 50.0 mg/kg/injection, schedule: Q04DX003 (ip), vehicle: saline with Tween-80) was 101 % of control, the T/C [5] was 99 % of control and the T/C [6] was 98 % of control. For the same compound, the T/C [7] was 117 % of control.

In the case of `CCCCCCC(/C=C/c1ccc(Cl)c(Cl)c1)=N\Nc1ccc(Cl)c(Cl)c1`, the T/C (dose: 25.0 mg/kg/injection, schedule: Q01DX009 (ip), vehicle: saline with Tween-80) was 90 % of control, the T/C [13] was 88 % of control and 93 % of control and the T/C [14] was 94 % of control. For the same compound, the T/C [15] was 87 % of control.

In the case of `CCOC(=O)c1c(C#N)c2cnn(-c3ccccc3)c2n2cccc12`, the T/C (dose: 15.0 mg/kg/injection, schedule: Q01DX005 (ip), vehicle: saline with Tween-80) was 98 % of control, the T/C (dose: 30.0 mg/kg/injection, schedule: Q01DX005 (ip), vehicle: saline with Tween-80) was 96 % of control and the T/C [16] was 86 % of control and 91 % of control.

With `N#CC(C(=O)O)C(c1c(Cl)cccc1Cl)C(C#N)C(=O)O` (stereo not drawn) the T/C [8] was 97 % of control and the T/C [9] was 89 % of control.

For `COc1cc2cc3c(c(O)c2c(O)c1/C=C/C(C)C)C(=O)CC(C)(OC(C)=O)C3` (stereo not drawn), the T/C (dose: 2.5 mg/kg/injection, schedule: Q01DX005 (ip), vehicle: Klucel (hydroxypropylcellulose) (HPC)) was 103 % of control and the T/C (dose: 5.0 mg/kg/injection, schedule: Q01DX005 (ip), vehicle: Klucel (hydroxypropylcellulose) (HPC)) was 117 % of control.

In the case of `Cc1ccc(NC(=O)Oc2ccccc2F)c([N+](=O)[O-])c1`, the T/C [13] was 115 % of control, the T/C [14] was 115 % of control and the T/C [15] was 115 % of control.

For `CCn1c2ccccc2c2c3c(NCCCN(C)C)cc(C)nc3ccc21`, the T/C (dose: 5.5 mg/kg/injection, schedule: Q01DX009 (ip), vehicle: suspension in saline) was 93 % of control, the T/C (dose: 11.0 mg/kg/injection, schedule: Q01DX009 (ip), vehicle: suspension in saline) was 97 % of control and the T/C (dose: 22.0 mg/kg/injection, schedule: Q01DX009 (ip), vehicle: suspension in saline) was 97 % of control.

With `O=C1c2sccc2[C@H](NC(=O)C(F)(F)F)[C@@H]1Cl` the T/C [16] was 100 % of control, the T/C (dose: 120.0 mg/kg/injection, schedule: Q01DX005 (ip), vehicle: saline with Tween-80) was 100 % of control and the T/C (dose: 240.0 mg/kg/injection, schedule: Q01DX005 (ip), vehicle: saline with Tween-80) was 100 % of control.

For `COC(=O)OC(C#N)c1cccc([N+](=O)[O-])c1` (stereo not drawn), the T/C (dose: 25.0 mg/kg/injection, schedule: Q01DX009 (ip), vehicle: suspension in saline) was 101 % of control, the T/C (dose: 50.0 mg/kg/injection, schedule: Q01DX009 (ip), vehicle: suspension in saline) was 98 % of control and the T/C (dose: 100.0 mg/kg/injection, schedule: Q01DX009 (ip), vehicle: saline) was 94 % of control. The T/C (dose: 100.0 mg/kg/injection, schedule: Q01DX009 (ip), vehicle: suspension in saline) was 104 % of control.
